Measured values: patent publication US12564559B2, “Combinations of LSD1 inhibitors for use in the treatment of solid tumors” (Oryzon Genomics, S.A., priority 2016, dated 2026)
Where two headings read alike, the source gives them in different places. One block for each compound: values may come before it.

Columns and labels:
NCI-H526 model = experiment: NCI-H526 xenograft model, combination with etoposide and carboplatin (Example 4, FIG. 2B); format: in vivo, nu/nu mice; details: added at 20 upk 5/2 for three weeks to SOC (etoposide + carboplatin)
Protocol: 8-12-week old nu/nu mice were injected with 1×10^7 H526 cells or […] SHP-77 resuspended in 100 μL of 1:1 mixture of Matrigel® and PBS. Tumors were staged at 100-150 mm^3 animals and distributed into dosing groups. […] Carboplatin was administered i.p. at a dose of 100 mpk weekly for three weeks (qwkx3). […] Tumor volume was measure biweekly using a digital caliber. The endpoint of the experiment was a tumor volume of 1000 mm^3 or 90 days, whichever came first. Statistical analysis was performed using unpaired t-test and Gehan-Breslow-Wilcoxon test.

NCI-H1876 [1] = experiment: Growth Inhibition (ATPLite), SCLC cell line treated for 7 days (Example 1); format: cell-based, human; details: NCI-H1876, “classic” neuroendocrine, FIG. 1A
Protocol: (§1) Once cells have been expanded and divided at their expected doubling times, screening was started. Cells were seeded in growth media in black 384-well tissue culture treated plates at 500 cells per well (except where noted in Analyzer). Cells were equilibrated in assay plates via centrifugation and placed in incubators attached to the Dosing Modules at 37° C. for twenty-four hours before treatment. […] These Tzero (T0) plates were read using ultra-sensitive luminescence on Envision Plate Readers.

NCI-H510 = experiment: as above; format: cell-based, human; details: NCI-H510, “classic” neuroendocrine, FIG. 1B
Protocol: as §1

H510A xenograft model = experiment: NCI-H510A xenograft model, in vivo tumor growth inhibition (Example 9, FIG. 9); set-up: species or system athymic nude mice; details: 40 μg per kg five days on/two days off; after 21 days of dosing; compared to untreated controls
Protocol: 7-8-week old athymic nude mice animals were injected with 5×10^6 H510A cells resuspended in 100 μL of 1:1 mixture of Matrigel® matrix (Corning Inc., Tewksbury/MA, C. S. Hughes et al.^113) and PBS. Tumors were staged at 200-300 mm^3 animals and distributed into dosing groups. […] Tumor volume was measure biweekly using a digital caliber. The study was concluded when mean tumor volume within control group reached 2000 mm^3 or 28 days post-staging. Statistical analysis was performed using unpaired t-test.

NCI-H1417 = experiment: Cell response to LSD1 inhibition, SCLC cell line cultured 4 days (Example 5); format: cell-based, human; details: NCI-H1417, SubType C; for EC50: Homo sapiens, 96 h
Description: (§2) As a positive control for cytotoxicity the Hsp90 inhibitor 17-N-allylamino-17-demethoxygeldanamycin (17-AAG, a geldanamycin analogue) was used as positive control in serial dilution.

NCI-H345 = experiment: as above; format: cell-based, human; details: NCI-H345, SubType C; for EC50: Homo sapiens, 96 h
Description: as §2

NCI-H446 = experiment: as above; format: cell-based, human; details: NCI-H446, SubType V; for EC50: Homo sapiens, 96 h
Description: as §2

SBC-5 = experiment: as above; format: cell-based, human; details: SBC-5, SubType (V); for EC50: Homo sapiens, 96 h
Description: as §2

NCI-H2227 = experiment: as above; format: cell-based, human; details: NCI-H2227, SubType C; for EC50: Homo sapiens, 96 h
Description: as §2

NCI-H1876 [2] = experiment: as above; format: cell-based, human; details: NCI-H1876, SubType C; for EC50: Homo sapiens, 96 h
Description: as §2

NCI-H69 = experiment: as above; format: cell-based, human; details: NCI-H69, SubType C; for EC50: Homo sapiens, 96 h
Description: as §2

NCI-H748 = experiment: as above; format: cell-based, human; details: NCI-H748, SubType C; for EC50: Homo sapiens, 96 h
Description: as §2

NCI-H2029 = experiment: as above; format: cell-based, human; details: NCI-H2029, SubType (C); for EC50: Homo sapiens, 96 h
Description: as §2

NCI-H146 = experiment: as above; format: cell-based, human; details: NCI-H146, SubType C; for EC50: Homo sapiens, 96 h
Description: as §2

NCI-H2081 = experiment: as above; format: cell-based, human; details: NCI-H2081, SubType C; for EC50: Homo sapiens, 96 h
Description: as §2

NCI-H510A = experiment: as above; format: cell-based, human; details: SubType C; for EC50: Homo sapiens, 96 h
Description: as §2

DMS-114 = experiment: as above; format: cell-based, human; details: DMS-114, SubType V; for EC50: Homo sapiens, 96 h
Description: as §2

SHP-77 = experiment: as above; format: cell-based, human; details: SHP-77, SubType V(C); for EC50: Homo sapiens, SHP77, 96 h
Description: as §2

NCI-H1048 = experiment: as above; format: cell-based, human; details: NCI-H1048, SubType V; for EC50: Homo sapiens, 96 h
Description: as §2

NCI-H82 = experiment: as above; format: cell-based, human; details: NCI-H82, SubType V; for EC50: Homo sapiens, 96 h
Description: as §2

NCI-H526 = experiment: as above; format: cell-based, human; details: NCI-H526, SubType V; for EC50: Homo sapiens, 96 h
Description: as §2

NCI-H187 = experiment: as above; format: cell-based, human; details: NCI-H187, SubType C; for EC50: Homo sapiens, 96 h
Description: as §2

NCI-H2171 = experiment: as above; format: cell-based, human; details: NCI-H2171, SubType V; for EC50: Homo sapiens, 96 h
Description: as §2

[3] = read-out: Sensitivity to LSD1 inh.

SMILES: N[C@H]1CC[C@H](N[C@@H]2C[C@H]2c2ccccc2)CC1 [listing 1 of 2 here]
duration of tumor regression (NCI-H526 model): improved the duration of tumor regression
delay of tumor regrowth (NCI-H526 model; after the suspension of dosing): 30 days
sensitivity of cell line to the compound (NCI-H1876 [1]): high level of sensitivity
sensitivity of cell line to the compound (NCI-H510): high level of sensitivity
tumor growth inhibition (H510A xenograft model): 34%

EC50 (NCI-H1417; read-out: EC50): 0.302 nM
EC50 (NCI-H1417; [3]): < 50 nM
EC50 (NCI-H345; read-out: EC50): 0.0275 nM
EC50 (NCI-H345; [3]): < 50 nM
EC50 (NCI-H446; read-out: EC50): > 50 nM
EC50 (NCI-H446; [3]): ≥ 50 nM
EC50 (SBC-5; read-out: EC50): > 50 nM
EC50 (SBC-5; [3]): ≥ 50 nM
EC50 (NCI-H2227; read-out: EC50): > 50 nM
EC50 (NCI-H2227; [3]): ≥ 50 nM
EC50 (NCI-H1876 [2]; read-out: EC50): 0.0432 nM
EC50 (NCI-H1876 [2]; [3]): < 50 nM
EC50 (NCI-H69; read-out: EC50): 0.585 nM
EC50 (NCI-H69; [3]): < 50 nM
EC50 (NCI-H748; read-out: EC50): 0.3 nM
EC50 (NCI-H748; [3]): < 50 nM
EC50 (NCI-H2029; read-out: EC50): > 50 nM
EC50 (NCI-H2029; [3]): ≥ 50 nM
EC50 (NCI-H146; read-out: EC50): 0.1 nM
EC50 (NCI-H146; [3]): < 50 nM
EC50 (NCI-H2081; read-out: EC50): 0.92 nM
EC50 (NCI-H2081; [3]): < 50 nM
EC50 (NCI-H510A; read-out: EC50): 0.315 nM
EC50 (NCI-H510A; [3]): < 50 nM
EC50 (DMS-114; read-out: EC50): > 50 nM
EC50 (DMS-114; [3]): ≥ 50 nM
EC50 (SHP-77; read-out: EC50): > 50 nM
EC50 (SHP-77; [3]): ≥ 50 nM
EC50 (NCI-H1048; read-out: EC50): > 50 nM
EC50 (NCI-H1048; [3]): ≥ 50 nM
EC50 (NCI-H82; read-out: EC50): > 50 nM
EC50 (NCI-H82; [3]): ≥ 50 nM
EC50 (NCI-H526; read-out: EC50): 0.632 nM
EC50 (NCI-H526; [3]): < 50 nM
EC50 (NCI-H187; read-out: EC50): 0.136 nM
EC50 (NCI-H187; [3]): < 50 nM
EC50 (NCI-H2171; read-out: EC50): > 50 nM
EC50 (NCI-H2171; [3]): ≥ 50 nM
SMILES: N[C@H]1CC[C@H](N[C@@H]2C[C@H]2c2ccccc2)CC1 [listing 2 of 2 here]
Max. Response (%) (NCI-H1417): 77%
Max. Response (%) (NCI-H345): 7%
Max. Response (%) (NCI-H446): 7%
Max. Response (%) (SBC-5): 23%
Max. Response (%) (NCI-H2227): 0%
Max. Response (%) (NCI-H1876 [2]): 145%
Max. Response (%) (NCI-H69): 44%
Max. Response (%) (NCI-H748): 13%
Max. Response (%) (NCI-H2029): 0%
Max. Response (%) (NCI-H146): 48%
Max. Response (%) (NCI-H2081): 10%
Max. Response (%) (NCI-H510A): 68%
Max. Response (%) (DMS-114): 0%
Max. Response (%) (SHP-77): 0%
Max. Response (%) (NCI-H1048): 27%
Max. Response (%) (NCI-H82): 0%
Max. Response (%) (NCI-H526): 35%
Max. Response (%) (NCI-H187): 61%
Max. Response (%) (NCI-H2171): 0%
